The values below come from patent US4749687A, “Renin inhibitors containing statine or derivatives thereof” (Pfizer Inc., priority 1985, dated 1988).

pIC50: −log10 of the molar value. Structures can show the parent of a compound that is named as a salt. Where a SMILES comes first, the peptide text is derived from it.

The assay addresses T1, renin (Homo sapiens, UniProt P00797).
T1 construct: Blood plasma was obtained from healthy laboratory personnel, pooled and stored frozen until required; from tissue; host or cells: pooled human blood plasma (supernatant after centrifugation)
T1 sequence (P00797 67-406): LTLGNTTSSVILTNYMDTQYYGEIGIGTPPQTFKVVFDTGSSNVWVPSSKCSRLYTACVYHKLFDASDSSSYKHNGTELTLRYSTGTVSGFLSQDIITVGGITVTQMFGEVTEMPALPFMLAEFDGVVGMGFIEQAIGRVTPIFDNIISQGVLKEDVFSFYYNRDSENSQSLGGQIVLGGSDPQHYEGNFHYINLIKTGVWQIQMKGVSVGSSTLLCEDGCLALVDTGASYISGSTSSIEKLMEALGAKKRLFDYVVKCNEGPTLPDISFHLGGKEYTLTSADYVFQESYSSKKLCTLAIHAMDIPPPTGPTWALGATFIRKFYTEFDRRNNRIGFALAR
The assay can be described thus: Inhibition of the angiotensinogen-cleaving activity of renin in vitro (plasma, angiotensin I radioimmunoassay). Type of assay: biochemical. Particulars: pooled blood plasma from healthy laboratory personnel, pH 7.4, incubated three hours at 37° C., angiotensin I by radioimmunoassay; read-out: IC50 (inhibitor concentration required to produce a fifty percent inhibition of the angiotensinogen-cleaving activity of renin). As to the method:
Blood plasma was obtained from healthy laboratory personnel, pooled and stored frozen until required. Before use, a quantity of this plasma was defrosted and centrifuged, and the supernatant mixed with protease inhibitors and buffered to pH 7.4. Renin inhibitors were added at different levels to different aliquots of the plasma supernatant, and the resulting mixtures (310 lambda) incubated for three hours at 37° C. along with renin inhibitor-free control mixtures. After incubation, the mixtures were quenched in ice water and each assayed for angiotensin I using angiotensin I antibody. The production of angiotensin I in the presence of a renin inhibitor was compared to that produced in the absence of the inhibitor, and a percentage inhibition was calculated. Using data obtained from duplicate incubations at each of several different inhibitor concentrations, the inhibitor concentration in the incubation mixture required to produce a fifty percent inhibition of the angiotensinogen-cleaving activity of renin, i.e. the IC50 of the inhibitor, was calculated for various different inhibitors.
The angiotensin I in the quenched incubation mixtures was assayed by means of a radioimmunoassay, using components of a renin radioimmunoassay kit supplied by Becton Dickinson and Co. (Orangeburg, N.Y.). This radioimmunoassay was based upon the one developed by Haber et al., J. Clin. Endocrinol., 29, pp. 1349-1355 (1969).
With `CC(C)(C)OC(=O)N1CCC[C@H]1C(=O)N[C@@H](Cc1ccccc1)C(=O)N[C@@H](Cc1c[nH]cn1)C(=O)N[C@@H](CC1CCCCC1)[C@@H](O)CC(=O)N[C@@H](CCCCN)C(=O)N[C@@H](Cc1ccccc1)C(=O)O` [Example 10, [N-(t-butyloxycarbonyl)-Pro]-Phe-His-CyclostatineLys-Phe] (HELM PEPTIDE1{[CC(C)(C)OC(=O)[*:2]].P.F.H.[O=C(C[C@H](O)[C@H](CC1CCCCC1)N[*:1])[*:2]].K.F}$$$$V2.0), the pIC50 is above 5.40.
Next, `CC[C@H](C)[C@@H](CN[C@@H](Cc1ccccc1)C(=O)O)NC(=O)C[C@H](O)[C@H](CC1CCCCC1)NC(=O)[C@H](Cc1c[nH]cn1)NC(=O)[C@H](Cc1ccccc1)NC(=O)OC(C)(C)C` [Example 11, [N-(t-butyloxycarbonyl)-Phe]-His-Cyclostatine-[Amino(2-secbutyl-ethylene)]-Phe Acetic Acid Salt]: above 5.40; `CC(C)(C)OC(=O)N[C@@H](Cc1ccccc1)C(=O)N[C@@H](Cc1c[nH]cn1)C(=O)N[C@@H](CC1CCCCC1)[C@@H](O)CC(=O)N[C@@H](CCCCN)C(=O)N[C@@H](Cc1ccccc1)C(=O)O` [Example 9, [N-(t-butyloxycarbonyl)-Phe]-His-Cyclostatine-Lys-Phe] (HELM PEPTIDE1{[CC(C)(C)OC(=O)[*:2]].F.H.[O=C(C[C@H](O)[C@H](CC1CCCCC1)N[*:1])[*:2]].K.F}$$$$V2.0): above 5.40; “[N-(t-butyloxycarbonyl)-Phe]-His-Aminostatine-Ile-Phe Diacetate [Example 5]”: above 5.40.
